In patent publication USRE46630E1, “Substituted 4-pyridones and their use as inhibitors of neutrophil elastase activity” (Boehringer Ingelheim International GmbH, priority 2012, dated 2017):

These compounds were tested against T1, Human neutrophil elastase (Homo sapiens, UniProt P08246) (assay: Human Neutrophil Elastase Assay). Details: Neutrophil Elastase assay; substrate MeOSuc-Ala-Ala-Pro-Val-AMC 250 μM; 15 min preincubation, 60 min incubation at room temperature; pH 7.5.
T1 construct: purchased Calbiochem 324681
T1 sequence (P08246 30-267): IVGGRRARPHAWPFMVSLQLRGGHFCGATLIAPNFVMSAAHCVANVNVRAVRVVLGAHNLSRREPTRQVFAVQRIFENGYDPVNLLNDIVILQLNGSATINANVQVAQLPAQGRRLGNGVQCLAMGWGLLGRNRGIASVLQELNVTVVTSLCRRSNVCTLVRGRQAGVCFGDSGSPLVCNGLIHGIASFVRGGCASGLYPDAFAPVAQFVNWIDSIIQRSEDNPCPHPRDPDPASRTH
Type: biochemical
In short: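 Run in 100 mM Tris, 500 mM NaCl, pH 7.5 with 0.01% BSA, with compounds prediluted in DMSO then buffer (5% DMSO final). Fluorescence was read at 380 nm excitation/460 nm emission after enzyme inactivation. Values were normalised to inactivated-enzyme (0%) and uninhibited-enzyme (100%) controls.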

| SMILES | IC50 [nM] |
| --- | --- |
| Cc1c(-c2ccnc(C(F)(F)F)c2)c(=O)c(C(=O)NCc2ccnn2C)cn1C(C)c1ccc(C#N)cc1 (stereo not drawn) [Example 9.16] | 6.7 |
| Cc1c(-c2cccc(C(F)(F)F)c2)c(=O)c(C(=O)NCCO)cn1C(C)c1ccc(C#N)cc1 (stereo not drawn) [Example 7.9] | 2.3 |
| Cc1c(-c2cccc(C(F)(F)F)c2)c(=O)c(C(=O)NCCc2ccncc2)cn1Cc1ccc(C#N)cc1 [Example 1.45] | 7.6 |
| COC(=O)C(C)NC(=O)c1cn(C(C)c2ccc(C#N)cc2)c(C)c(-c2ccnc(C(F)(F)F)c2)c1=O (stereo not drawn) [Example 9.33] | 23.1 |
| Cc1c(-c2cccc(C(F)F)c2)c(=O)c(C(=O)NCCCS(C)(=O)=O)cn1C(C)c1ccc(C#N)cc1 (stereo not drawn) [Example 8.3] | 1.3 |
| Cc1c(-c2cccc(C(F)(F)F)c2)c(=O)c(C(=O)NCC2CCCO2)cn1Cc1ccc(C#N)cc1 (stereo not drawn) [Example 1.47] | 22 |
| Cc1c(-c2cccc(C(F)(F)F)c2)c(=O)c(C(=O)NCc2ccnn2C)cn1Cc1ccc(C#N)cc1 [Example 1.33] | 3.7 |
| Cc1c(-c2cccc(C(F)(F)F)c2)c(=O)c(C(=O)NC2CCOC2)cn1C(C)c1ccc(C#N)cn1 (stereo not drawn) [Example 47.9] | 67.2 |
| Cc1c(-c2cccc(C(F)(F)F)c2)c(=O)c(C(=O)NCc2ccc(S(C)(=O)=O)cc2)cn1Cc1ccc(C#N)nc1 [Example 2.4] | 1.4 |
